IC50 data for two compounds are collected here from BindingDB's records for patent US9040518 (Glaxosmithkline, 2015).

This experiment addresses T1, Ileal sodium/bile acid cotransporter (Homo sapiens, UniProt Q12908).
T1 sequence (Q12908 whole entry): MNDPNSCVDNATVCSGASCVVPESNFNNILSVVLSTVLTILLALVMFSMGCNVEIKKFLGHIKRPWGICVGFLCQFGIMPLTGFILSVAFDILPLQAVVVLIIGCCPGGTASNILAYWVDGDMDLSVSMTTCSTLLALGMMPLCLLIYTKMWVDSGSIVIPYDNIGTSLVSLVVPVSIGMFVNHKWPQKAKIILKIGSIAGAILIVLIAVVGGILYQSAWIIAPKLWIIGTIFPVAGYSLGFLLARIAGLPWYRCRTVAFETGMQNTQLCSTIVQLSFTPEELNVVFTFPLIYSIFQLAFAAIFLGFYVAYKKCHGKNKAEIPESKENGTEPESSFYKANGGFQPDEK
Description: Inhibition Assay. Particulars: 25 °C. The method, then: On the day of the uptake experiment, 10 mM HEPES was added to Hank's Balanced Salt Solution, and the pH was adjusted to 7.4 with TRIS (HBSSH). The assay buffer was prepared by adding 100 uM [3H]-taurocholate and 10 uM cold taurocholate to room temperature HBSSH. A separate washing buffer was prepared by adding 10 uM cold taurocholate to HBSSH (30 ml per assay plate) and placed on ice. Using 100% DMSO, 8 point, 3-fold dilution curves for each test compound was prepared starting at 200 uM. […] Drug plates were created by adding 3 uL of each concentration to a v-bottom 96-well plate then diluted 60-fold with 177 uL of assay buffer. Plates were removed from the incubator and allowed to cool to ambient temperature.

As to `CCCC[C@]1(CC)CS(=O)(=O)c2cc(CN3CCC[C@H]3C(=O)O)c(OC)cc2[C@@H](c2ccccc2)N1` [US9040518, 63], the 50% inhibitory concentration (IC50) came out at 8.99 µM. For `CCCC[C@]1(CC)CS(=O)(=O)c2cc(CCCC(N)=O)c(OC)cc2[C@@H](c2ccccc2)N1` [US9040518, 24], the concentration for half-maximal inhibition (IC50) turned out to be 0.073 µM.

The IC50 is the midpoint of a concentration-inhibition curve. Read a low IC50 as higher potency.
